Numbered stars: 1 amine (or outer) side, 2 acyl side, 3 side chain; on linkers, the order of the positions; unused ones are H or OH. Square brackets hold non-standard residues; d marks the D form. Side chains are listed from the residue outwards. Peptide text beside a SMILES is read from it. * marks the point of attachment. DOTA = O=C(O)CN1CCN(CC(=O)O)CCN(CC(=O)*)CCN(CC(=O)O)CC1; NH(2-(imidazol-4-yl)ethyl) = c1ncc(CCN*)[nH]1; Suc = O=C(CCC(=O)[*:2])[*:1]

For the data set, the system named is superficial cancer of the urinary bladder. The conditions noted are these: human, in vivo. As for the experimental part: Antibody-Mediated Radioimmunotherapy Using a Beta-Emitting Radionuclide A patient with a superficial cancer of the urinary bladder is treated with a 1:1 molar mixture of the bispecific antibody hMN-14×679-F(ab′)2 [anti-CEA×anti-HSG] of example 1, and the carrier-free Y-90-IMP 241 bivalent hapten of example 3, above. The premixed radioimmunotherapy agent is introduced into the bladder via a urethral catheter inserted under local anesthetic. Prior to injection, the bladder is drained completely, and 70 mL of the complex in 70 mL 0.9% NaCl (comprising 20 mg of the bispecific antibody and 10 mCi of Y-90 conjugated to the bivalent hapten) are instilled and allowed 90 minutes to localize by binding to tumor tissue. The unbound radiolabeled is bispecific antibody mixture is then allowed to evacuate the bladder through the urethra, by washing out the bladder using 50 mL 0.9% NaCl, leaving the remaining administered radioactivity bound substantially only to tumor cells. Seventy-two hours later, the patient is taken to the operating room, where biopsies of macroscopically normal urothelium and bladder tumor are made. The urothelium is separated from the underlying mucularis layer and assayed in a beta scintillating counter to allow measurement of radioactivity in the tumor and in the normal tissue, and then the preparations were fixed in formalin for histopathological evaluation. […]

Regarding `NC(=O)[C@H](CCCCNC(=O)CNC(=O)CCC(=O)NCCc1cnc[nH]1)NC(=O)[C@@H](Cc1ccc(O)cc1)NC(=O)[C@H](CCCCNC(=O)CNC(=O)CCC(=O)NCCc1cnc[nH]1)NC(=O)[C@H](Cc1ccccc1)NC(=O)CN1CCN(CC(=O)O)CCN(CC(=O)O)CCN(CC(=O)O)CC1` [Y-90-IMP 241, metal not drawn] ({DOTA}-FK([Gly-Suc-NH(2-(imidazol-4-yl)ethyl)])[dY]K([Gly-Suc-NH(2-(imidazol-4-yl)ethyl)])-NH2), the “histology of normal urothelium” value is “relatively intact normal urothelium”.

These data come from US20040022726A1, “Methods and compositions for intravesical therapy of bladder cancer” (priority 2002, published 2004).
